Results reported in patent publication US20090130261A1, “Vit-A-Cup” (priority 2007, published 2009).
Where two headings read alike, the source gives them in different places.

Experiments:
[1] = compatibility and stability of additives dissolved or suspended in water-based polyacrylic acid carbomer matrixes; conditions: for compatibility in carrier matrix: short term
Excerpt: (§1) The differing chemical characteristics of the various additives require each ingredient or blend of ingredients to be dissolved or suspended in a customized matrix in order to ensure desired delivery of the additive in question. […] A number of characteristics were studied for each desired additive compound or complex, such as the degree of chemical affinity to water, solubility rates in various solvents and at various levels of pH, and degradation rates upon exposure to various environmental factors including oxygen levels in ambient air and temperature, as well as individual tolerance to extreme shifts in pH levels.

[2] = solubility characteristics of additives
Excerpt: as §1
This is accomplished, for example, in a suspension of 3% Xanthan gum and 0.5% Noveon Carbopol Carbomer in distilled water with 20% Ethanol (to aid in speeding the drying time). This solution is then sprayed on to the interior of the cup and allowed to dry. […] Again, this would be delivered in a flavor-masked suspension of 3% Xanthan gum and 0.5% Noveon Carbopol Carbomer.

[3] = dissolved or suspended in water-based polyacrylic acid carbomer matrixes
[4] = require suspension prior to administration to the cup

Row | Compound | stability in carrier matrix [1] | compatibility in carrier matrix [1, 3] | also measured
1 | N=C(N)NCCC[C@H](N)C(=O)O [Arginine] | stable | compatible | –
2 | CC(C)[C@H](N)C(=O)O [Valine] | stable | compatible | –
3 | CC1=C(/C=C/C(C)=C/C=C/C(C)=C/C=C/C=C(C)/C=C/C=C(C)/C=C/C2=C(C)CCCC2(C)C)C(C)(C)CCC1 [Vitamin A, Beta-Carotene] | stable | compatible | –
4 | N[C@@H](CC(=O)O)C(=O)O [Aspartic acid] | stable | compatible | –
5 | Cc1ncc(C[n+]2csc(CCO)c2C)c(N)n1 [Vitamin B1, Thiamine] | stable | compatible | –
6 | [Se] [Selenium] | – | – | solubility [2, 4]: Insoluble
7 | NCCCC[C@H](N)C(=O)O [Lysine] | stable | compatible | –
8 | [Zn] [Zinc] | – | – | solubility [2, 4]: Insoluble
9 | CC(C)(CO)[C@@H](O)C(=O)NCCC(=O)O [Vitamin B5, Pantothenic Acid] | stable | compatible | –
10 | Nc1nc2ncc(CNc3ccc(C(=O)N[C@@H](CCC(=O)O)C(=O)O)cc3)nc2c(=O)[nH]1 [Folic Acid] | – | – | solubility [2]: Insoluble
11 | NC(=O)CC[C@H](N)C(=O)O [Glutamine] | stable | compatible | –
12 | N[C@@H](CO)C(=O)O [Serine] | stable | compatible | –
13 | Cc1ncc(CO)c(CO)c1O [Vitamin B6, Pyridoxine] | stable | compatible | –
14 | NC(=O)C[C@H](N)C(=O)O [Asparagine] | stable | compatible | –
15 | CSCC[C@H](N)C(=O)O [Methionine] | stable | compatible | –
16 | C[C@H](N)C(=O)O [Alanine] | stable | compatible | –
17 | [Mo] [Molybdenum] | – | – | solubility [2]: Insoluble
18 | Cc1cc2nc3c(=O)[nH]c(=O)nc-3n(C[C@H](O)[C@H](O)[C@H](O)CO)c2cc1C [Vitamin B2, Riboflavin] | stable | compatible | –
19 | O=C(O)[C@@H]1CCCN1 [Proline] | stable | compatible | –
20 | O=C(O)CCCC[C@@H]1SC[C@@H]2NC(=O)N[C@@H]21 [Biotin] | stable | compatible | –
21 | Nc1ccc(C(=O)O)cc1 [PABA, Para-Aminobenzoic Acid] | – | – | solubility [2, 4]: Insoluble
22 | CC[C@H](C)[C@H](N)C(=O)O [Isoleucine] | stable | compatible | –

Row | Compound | stability in carrier matrix [1] | compatibility in carrier matrix [1, 3] | also measured
23 | [Mg+2] [Magnesium] | – | – | solubility [2, 4]: Insoluble
24 | N[C@@H](CCC(=O)O)C(=O)O [Glutamic acid] | – | compatible | stability in carrier matrix ([1]; dissolved or suspended in water-based polyacrylic acid carbomer matrixes, longer term): stable
25 | [Cu] [Copper] | – | – | solubility [2]: Insoluble
26 | COC1=C(OC)C(=O)C(C/C=C(\C)CC/C=C(\C)CC/C=C(\C)CC/C=C(\C)CC/C=C(\C)CC/C=C(\C)CC/C=C(\C)CC/C=C(\C)CC/C=C(\C)CCC=C(C)C)=C(C)C1=O [Coenzyme Q10] | – | – | solubility [2, 4]: Insoluble
27 | [K+] [Potassium] | – | – | solubility [2]: Insoluble
28 | N[C@@H](Cc1ccc(O)cc1)C(=O)O [Tyrosine] | stable | compatible | –
29 | Vitamin E | – | – | solubility [2]: Insoluble
30 | Cyanocobalamin [Vitamin B12] | stable | compatible | –
31 | Vitamin K | – | – | solubility [2]: Insoluble
32 | N[C@@H](CS)C(=O)O [Cysteine] | stable | compatible | –
33 | NCC(=O)O [Glycine] | stable | compatible | –
34 | [Cr] [Chromium] | – | – | solubility [2, 4]: Insoluble
35 | N[C@@H](Cc1c[nH]cn1)C(=O)O [Histidine] | stable | compatible | –
36 | Vitamin D | – | – | solubility [2, 4]: Insoluble
37 | Iodine | – | – | solubility [2, 4]: Insoluble
38 | [Mn+2] [Manganese] | – | – | solubility [2, 4]: Insoluble
39 | CC(C)C[C@H](N)C(=O)O [Leucine] | stable | compatible | –
40 | N[C@@H](Cc1ccccc1)C(=O)O [Phenylalanine] | stable | compatible | –
41 | C[N+](C)(C)CCO [Choline] | stable | – | –
42 | N[C@@H](Cc1c[nH]c2ccccc12)C(=O)O [Tryptophan] | stable | compatible | –
43 | C[C@@H](O)[C@H](N)C(=O)O [Threonine] | stable | compatible | –
